In US7501541B2, “Malonamides as orexin antagonists” (Hoffmann-La Roche Inc., priority 2007, dated 2009):
No end group written: not given here.

What was measured:
[1] = molecular target: T1, human orexin-2 (hOX2) receptors (Homo sapiens, UniProt O43614); assay: Intracellular Ca2+ mobilization assay (FLIPR), CHO(dHFr-) cells expressing hOX2; type: cell-based; conditions: antagonism of orexin-A at EC80; Kb=IC50/(1+[A]/EC50); CHO(dHFr-)-OX2R cells
T1 construct: expressed in transfected cells
T1 sequence (O43614 1-444): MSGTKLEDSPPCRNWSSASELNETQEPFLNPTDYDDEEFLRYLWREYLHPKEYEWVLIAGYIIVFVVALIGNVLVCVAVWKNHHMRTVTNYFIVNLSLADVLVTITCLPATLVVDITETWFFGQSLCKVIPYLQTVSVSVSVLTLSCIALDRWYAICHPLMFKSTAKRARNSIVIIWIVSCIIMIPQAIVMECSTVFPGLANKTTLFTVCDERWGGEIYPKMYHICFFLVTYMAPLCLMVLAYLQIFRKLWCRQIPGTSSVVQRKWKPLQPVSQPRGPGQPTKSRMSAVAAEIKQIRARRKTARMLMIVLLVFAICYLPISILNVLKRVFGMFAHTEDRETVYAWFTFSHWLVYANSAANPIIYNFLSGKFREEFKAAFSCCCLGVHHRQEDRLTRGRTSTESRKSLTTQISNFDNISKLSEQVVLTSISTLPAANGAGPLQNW
Description: (§1) Intracellular Ca^2+ Mobilization Assay
(§2) The Chinese Hamster Ovary (dHFr-) mutant cell line stably expressing human orexin-1 (hOX1) or human orexin-2 (hOX2) receptors were maintained in Dulbecco's Modified Eagle Medium (1X) with GlutaMax™ 1, 4500 mg/L D-Glucose and Sodium Pyruvate (Catalog No. 31966-021, Invitrogen, Carlsbad, Calif.), 5% dialyzed fetal calf serum (Catalog No. 26400-044), 100 μg/ml penicillin and 100 μg/ml streptomycin. The cells were seeded at 5×10^4 cells/well in the poly-D-lysine treated, 96-well, black/clear-bottomed plates (Catalog No. BD356640, BD Biosciences, Palo Alto, Calif.). 24 h later, the cells were loaded for 1 h at 37° C. with 4 μM Flou-4 acetoxymethyl ester (Catalog No. F-14202, Molecular Probes, Eugene, Oreg.) in FLIPR buffer (1×HBSS, 20 mM HEPES, 2.5 mM Probenecid). Hanks' Balanced Salt Solution (HBSS) (10×) (catalog No. 14065-049) and HEPES (1M) (catalog No. 15630-056) were purchased from Invitrogen, Carlsbad, Calif. Probenecid (250 mM) (catalog No. P8761) was from Sigma, Buchs, Switzerland. The cells were washed five times with FLIPR buffer to remove excess dye and intracellular calcium mobilization, [Ca^2+]i were measured using a Fluorometric Imaging Plate Reader (FLIPR-96, Molecular Devices, Menlo Park, Calif.) as described previously (Malherbe et al., Mol. Pharmacol., 64, 823-832, 2003). Orexin A (catalog No. 1455, Toris Cookson Ltd, Bristol, UK) was used as agonist. Orexin A ([…] stock solution in DMSO) was diluted in FLIPR buffer +0.1% BSA. The EC50 and EC80 values of orexin-A were measured daily from standard agonist concentration-response curves in CHO(dHFr-)-OX1R and -OX2R cell lines. All compounds were dissolved in 100% DMSO. Inhibition curves were determined by addition of 11 concentrations (0.0001-10 μM) of inhibitory compounds and using EC80 value of orexin-A as agonist (a concentration which gave 80% of max agonist response, determined daily). The antagonists were applied 25 min (incubation at 37° C.) before the application of the agonist. Responses were measured as peak increase in fluorescence minus basal, normalized to the maximal stimulatory effect induced by EC80 value of orexin-A or orexin-B. Inhibition curves were fitted according to the Hill equation: y=100/(1+(x/IC50)^nH), where nH=slope factor using Excel-fit 4 software (Microsoft). Kb values were calculated according to the following equation Kb=IC50/(1+[A]/EC50) where A is the concentration of agonist added which is very close to agonist EC80 value, and IC50 and EC50 values were derived from the antagonist inhibition and orexin-A or B agonist curves, respectively.

[2] = molecular target: T2, human orexin-1 (hOX1) receptors (Homo sapiens, UniProt O43613); assay: Intracellular Ca2+ mobilization assay (FLIPR), CHO(dHFr-) cells expressing hOX1; type: cell-based; conditions: antagonism of orexin-A at EC80; Kb=IC50/(1+[A]/EC50); CHO(dHFr-)-OX1R cells
T2 construct: expressed in transfected cells
T2 sequence (O43613 1-425): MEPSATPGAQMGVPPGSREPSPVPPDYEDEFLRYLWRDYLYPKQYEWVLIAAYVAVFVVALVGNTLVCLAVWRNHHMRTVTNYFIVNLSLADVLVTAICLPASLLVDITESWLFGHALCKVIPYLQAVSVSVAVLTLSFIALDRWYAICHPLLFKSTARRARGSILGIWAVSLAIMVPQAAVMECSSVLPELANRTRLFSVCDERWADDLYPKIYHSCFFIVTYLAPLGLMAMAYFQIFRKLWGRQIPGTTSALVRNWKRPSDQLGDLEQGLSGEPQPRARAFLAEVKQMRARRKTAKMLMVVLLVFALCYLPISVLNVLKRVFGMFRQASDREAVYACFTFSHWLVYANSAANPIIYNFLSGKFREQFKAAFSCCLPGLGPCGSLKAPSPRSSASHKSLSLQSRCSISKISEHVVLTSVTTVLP
Description: as §1, §2

REM sleep = conditions: rat, icv administration (Piper et al., 2000); cited from earlier work

Compound	Kb [1]	Kb [2]	reduces total REM sleep (REM sleep)
CNC(=O)C(C(=O)N(CCc1ccc(C(F)(F)F)cc1)c1ccc(OC)c(OC)c1)c1ccccc1 (stereo not drawn) [Example 1, N-(3,4-Dimethoxy-phenyl)-N′-methyl-2-phenyl-N-[2-(4-trifluoromethyl-phenyl)-ethyl]-malonamide]	0.0255 µM	0.16 µM	
COc1ccc(N(CCc2ccc(C(F)(F)F)cc2)C(=O)C(C(N)=O)c2ccccc2)cc1OC (stereo not drawn) [Example 2, N-(3,4-Dimethoxy-phenyl)-2-phenyl-N-[2-(4-trifluoromethyl-phenyl)-ethyl]-malonamide]	0.0172 µM	0.127 µM	
CCCCNC(=O)C(C(=O)N(CCc1ccc(C(F)(F)F)cc1)c1ccc(OC)c(OC)c1)c1ccccc1 (stereo not drawn) [Example 3, N-Butyl-N′-(3,4-dimethoxy-phenyl)-2-phenyl-N′-[2-(4-trifluoromethyl-phenyl)-ethyl]-malonamide]	0.0419 µM		
COCCNC(=O)C(C(=O)N(CCc1ccc(C(F)(F)F)cc1)c1ccc(OC)c(OC)c1)c1ccccc1 (stereo not drawn) [Example 5, N-(3,4-Dimethoxy-phenyl)-N′-[2-methoxy-ethyl)-2-phenyl-N-[2-(4-trifluoromethyl-phenyl)-ethyl]-malonamide]	0.0217 µM	0.229 µM	
COc1ccc(N(CCc2ccc(C(F)(F)F)cc2)C(=O)C(C(=O)NCc2ccc(C)cc2)c2ccccc2)cc1OC (stereo not drawn) [Example 13, N-(3,4-Dimethoxy-phenyl)-N′-(4-methyl-benzyl)-2-phenyl-N-[2-(4-trifluoromethyl-phenyl)-ethyl]-malonamide]	0.0968 µM	0.218 µM	
COc1ccc(N(CCc2ccc(C(F)(F)F)cc2)C(=O)C(C(=O)N(C)CCc2ccccc2)c2ccccc2)cc1OC (stereo not drawn) [Example 14, N-(3,4-Dimethoxy-phenyl)-N′-methyl-N′-phenethyl-2-phenyl-N-[2-(4-trifluoromethyl-phenyl)-ethyl]-malonamide]	0.0141 µM	0.234 µM	
COc1ccc(N(CCc2ccc(C(F)(F)F)cc2)C(=O)C(C(=O)N(C)Cc2ccccc2)c2ccccc2)cc1OC (stereo not drawn) [Example 15, N-Benzyl-N′-(3,4dimethoxy-phenyl)-N-methyl-2-phenyl-N′-[2-(4-trifluoromethyl-phenyl)-ethyl]-malonamide]	0.0428 µM	0.166 µM	
COc1ccc(N(CCc2ccc(C(F)(F)F)cc2)C(=O)C(C(=O)Nc2ccc(F)cc2)c2ccccc2)cc1OC (stereo not drawn) [Example 16, N-(3,4-Dimethoxy-phenyl)-N′-(4-fluoro-phenyl)-2-phenyl-N-[2-(4-trifluoromethyl-phenyl)-ethyl]-malonamide]	0.0817 µM	0.252 µM	
CCNC(=O)C(C(=O)N(CCc1ccc(C(F)(F)F)cc1)c1ccc(OC)c(OC)c1)c1ccccc1 (stereo not drawn) [Example 17, N-(3,4-Dimethoxy-phenyl)-N′-ethyl-2-phenyl-N-[2-(4-trifluoromethyl-phenyl)-ethyl]-malonamide]	0.0299 µM	0.191 µM	
COc1ccc(N(CCc2ccc(C(F)(F)F)cc2)C(=O)C(C(=O)NC2CC2)c2ccccc2)cc1OC (stereo not drawn) [Example 18, N-Cyclopropyl-N′-(3,4-dimethoxy-phenyl)-2-phenyl-N′-[2-(4-trifluoromethyl-phenyl)-ethyl]-malonamide]	0.0197 µM	0.199 µM	
CCCNC(=O)C(C(=O)N(CCc1ccc(C(F)(F)F)cc1)c1ccc(OC)c(OC)c1)c1ccccc1 (stereo not drawn) [Example 19, N-(3,4-Dimethoxy-phenyl)-2-phenyl-N′-propyl-N-[2-(4-trifluoromethyl-phenyl)-ethyl]-malonamide]	0.0523 µM	0.245 µM	
COc1ccc(N(CCc2ccc(C(F)(F)F)cc2)C(=O)C(C(=O)NCC2CC2)c2ccccc2)cc1OC (stereo not drawn) [Example 20, N-Cyclopropylmethyl-N′-(3,4-dimethoxy-phenyl)-2-phenyl-N′-[2-(4-trifluoromethyl-phenyl)-ethyl]-malonamide]	0.0468 µM	0.292 µM	
COc1ccc(N(CCc2ccc(C(F)(F)F)cc2)C(=O)C(C(=O)NCC(F)F)c2ccccc2)cc1OC (stereo not drawn) [Example 21, N-(2,2-Difluoro-ethyl)-N′-(3,4-diemthoxy-phenyl)-2-phenyl-N′-[2-(4-trifluoromethyl-phenyl)-ethyl]-malonamide]	0.0278 µM	0.173 µM	
COc1ccc(N(CCc2ccc(C(F)(F)F)cc2)C(=O)C(C(=O)Nc2cccnc2)c2ccccc2)cc1OC (stereo not drawn) [Example 22, N-(3,4-Dimethoxy-phenyl)-2-phenyl-N′-pyridin-3-yl-N-[2-(4-trifluoromethyl-phenyl)-ethyl]-malonamide]	0.0838 µM	0.439 µM	
COc1ccc(N(CCc2ccc(C(F)(F)F)cc2)C(=O)C(C(=O)NC2CCOCC2)c2ccccc2)cc1OC (stereo not drawn) [Example 23, N-(3,4-Dimethoxy-phenyl)-2-phenyl-N′-(tetrahydro-pyran-4-yl)-N-[2-(4-trifluoromethyl-phenyl)-ethyl]-malonamide]	0.023 µM	0.238 µM	
COc1ccc(N(CCc2ccc(C(F)(F)F)cc2)C(=O)C(C(=O)NCc2cccnc2)c2ccccc2)cc1OC (stereo not drawn) [Example 24, N-(3,4-Dimethoxy-phenyl)-2-phenyl-N′-pyridin-3-ylmethyl-N-[2-(4-trifluoromethyl-phenyl)-ethyl]-malonamide]	0.245 µM	0.245 µM	
COc1cc(N(CCc2ccc(C(F)(F)F)cc2)C(=O)C(C(=O)N(C)C)c2ccccc2)ccc1Cl (stereo not drawn) [Example 56, N-(4-Chloro-3-methoxy-phenyl)-N′,N′-dimethyl-2-phenyl-N-[2-(4-trifluoromethyl-phenyl)-ethyl]-malonamide]	0.055 µM	0.295 µM	
COc1ccc(N(CCc2ccc(C(F)(F)F)cc2)C(=O)C(C(=O)N(C)C)c2ccccc2)cc1Cl (stereo not drawn) [Example 58, N-(3-Chloro-4-methoxy-phenyl)-N′,N′-dimethyl-2-phenyl-N-[2-(4-trifluoromethyl-phenyl)-ethyl]-malonamide]	0.0572 µM	0.723 µM	
OX-A: orexin-A/hypocretin1, hypothalamic neuropeptide of 33 amino acids, agonist of OX1R and OX2R (QPLPDCCRQKTCSCRLYELLHGAGNHAAGILTL; ends and bridges not checked; cysteine pairing not given here; UniProt O43612 34-66, looked up)			84%
